This is an account of results in patent US5464617A, “β-lactam compounds” (Hoffmann-La Roche Inc., priority 1994, dated 1995).

≈ marks a conversion by molar mass, not a printed value. Structures can show the parent of a compound that is named as a salt. A value given as a limit tells only on which side of the number the result lay.

In assay [1] the test system is Citrobacter freundii 1982. Kind of assay: MIC in vitro of a 1:4 combination of ceftriaxone with a compound of formula I (Test D). In kind it is cell-based. The note with it: 1:4 combination of ceftriaxone with the compound; for MIC C. freundii 1982 (D): Table 4, test D; for MIC C. freundii 1982: Table 2. The procedure:
The minimum inhibitory concentration in vitro ([…]) of a 1:4 combination of ceftriaxone with a compound of formula I against Citrobacter freundii 1982 was measured and compiled in Table 2 hereinafter.

In a further assay the test system is E. coli 1346. Kind of assay: Antibacterial activity of the products per se, serial dilution method in liquid medium (Test E). The note with it: product per se; for MIC E. coli 1346 (E): Table 4, test E; for MIC E. coli 1346: Table 3, liquid medium. It counts as cell-based. The text has this:
The antibacterial activity of the products per se is illustrated on the basis of Table 3 hereinafter, the minimum inhibitory concentration […] in vitro against E. coli 1346 being determined using the serial dilution method in liquid medium: […]

Turning to `N#C/C=C/C1=C(C(=O)O)N2C(=O)[C@@H]3[C@H]2[C@H](C1)CN3C(=O)Nc1ccc(O)cc1` [49(b), (E)-(1aS,3aR,6bR)-5-(2-Cyanovinyl)-2-(4-hydroxyphenylcarbamoyl)-1-oxo-1a,2,3,3a,4,6b-hexahydro-1H-2,6a-diazacyclobut[cd]indene-6-carboxylic acid sodium salt], the “MIC C. freundii 1982 (D)” value in assay [1] turned out to be 1 µg/mL. The “MIC E. coli 1346 (E)” value with E. coli 1346 amounted to 4 µg/mL.
Regarding `CC(=O)N1C[C@H]2CC(COC(=O)NCc3ccc(O)cc3)=C(C(=O)O)N3C(=O)[C@@H]1[C@@H]23` [102(a), (1aS,3aR,6bR)-2-Acetyl-5-[(4-hydroxy-benzyl)-carbamoyloxymethyl]-1-oxo-1a,2,3,3a,4,6b-hexahydro-1H-2,6a-diazacyclobut[cd]indene-6-carboxylic acid sodium salt], the “MIC C. freundii 1982 (D)” value in assay [1] was 2 µg/mL. For the same molecule, the “MIC E. coli 1346 (E)” value in the assay with E. coli 1346 was 0.5 µg/mL.
As to `CS(=O)(=O)OC1=C(C(=O)O)N2C(=O)[C@H]3NC[C@@H](C1)[C@H]32` [Example 8, (1aS,3aR,6bR)-5-Methylsulphonyloxy-1-oxo-1a,2,3,3a,4,6b-hexahydro-1H-2,6a-diazacyclobut[cd]indene-6-carboxylic acid trifluoroacetate], in assay [1], the “MIC C. freundii 1982” value was found to be 1 µg/mL. For the same molecule, the “MIC E. coli 1346” value in the assay on E. coli 1346 stood at 2 µg/mL.
Turning to `NC(=O)c1ccc(NC(=O)N2C[C@H]3OC(CSc4ccncc4)=C(C(=O)O)N4C(=O)[C@@H]2[C@@H]34)cc1` [31(e), (1aS,3aR,6bS)-2-(4-Carbamoyl-phenylcarbamoyl)-1-oxo-5-(pyridin-4-ylsulphanylmethyl)-1,1a,2,3,3a,6 b-hexahydro-4-oxa-2,6a-diazacyclobut[cd]indene-6-carboxylic acid sodium salt], the “MIC C. freundii 1982 (D)” value in assay [1] amounted to 0.5 µg/mL. Also, in the assay on E. coli 1346, the “MIC E. coli 1346 (E)” value is more than 32 µg/mL.
In the same order, the values of `CNC(=O)Cn1nnnc1SCC1=C(C(=O)O)N2C(=O)[C@H]3NC[C@@H](O1)[C@H]32` [Example 29(k), (1aS,3aR,6bS)-5-(1-Methylcarbamoylmethyl-1H-tetrazol-5-ylsulphanylmethyl)-1-oxo-1,1a,2,3,3a,6 b-hexahydro-4-oxa-2,6a-diazacyclobut[cd]indene-6-carboxylic acid] are 8 µg/mL and 32 µg/mL (≈ 83.9 µM).
In the same order, the values of `CSc1nnnn1CC1=C(C(=O)O)N2C(=O)[C@H]3NC[C@@H](S1)[C@H]32` [Example 44, (1aS,3aR,6bS)-5-(5-Methylsulphanyl-1H-tetrazol-1-ylmethyl)-1-oxo-1,1a,2,3,3a,6b-hexahydro-4-thia-2,6a-diazacyclobut[cd]indene-6-carboxylic acid sodium salt] are 4 µg/mL and 32 µg/mL.
In the case of `Cn1nnnc1SC1=C(C(=O)O)N2C(=O)[C@@H]3[C@H]2[C@H](C1)CN3C(=O)NCc1cccs1` [3(d), (1aS,3aR,6bR)-5-(1-Methyl-1H-tetrazol-5-ylsulphanyl)-1-oxo-2-(thien-2-ylmethylcarbamoyl)-1a,2,3,3a,4,6b-hexahydro-1H-2,6a-diazacyclobut[cd]indene-6-carboxylic acid sodium salt], the “MIC C. freundii 1982” value in assay [1] stood at 1 µg/mL. Moreover, the “MIC E. coli 1346” value in the assay with E. coli 1346 is 32 µg/mL.
With `CC(=O)N1C[C@H]2CC(COC(=O)Nc3ccc(O)cc3)=C(C(=O)O)N3C(=O)[C@@H]1[C@@H]23` [90(a), (1aS,3aR,6bR)-2-Acetyl-5-(4-hydroxy-phenylcarbamoyloxymethyl)-1-oxo-1a,2,3,3a,4,6b-hexahydro-1H-2,6a-diazacyclobut[cd]indene-6-carboxylic acid sodium salt], the “MIC C. freundii 1982 (D)” value in assay [1] came out at 1 µg/mL. Moreover, in the assay on E. coli 1346, the “MIC E. coli 1346 (E)” value was 0.5 µg/mL.
With `Cn1nnnc1SCC1=C(C(=O)O)N2C(=O)[C@H]3NC[C@@H](S1)[C@H]32` [Example 40(a), (1aS,3aR,6bS)-5-(1-Methyl-1H-tetrazol-5-ylsulphanylmethyl)-1-oxo-4-thia-1,1a,2,3,3a,6b-hexahydro-2,6a-diazacyclobut[cd]indene-6-carboxylic acid], the “MIC C. freundii 1982 (D)” value in assay [1] stood at 0.5 µg/mL. For the same molecule, in the assay with E. coli 1346, the “MIC E. coli 1346 (E)” value turned out to be 16 µg/mL (≈ 47 µM).
As to `CC(=O)N1C[C@H]2CC(SCc3n(C)nc[n+]3C)=C(C(=O)[O-])N3C(=O)[C@@H]1[C@@H]23` [3(ao), (1aS,3aR,6bR)-2-Acetyl-5-[(1,4-dimethyl-1H-1,2,4-triazol-5-ylio)-methylsulphanyl]-1-oxo-1a,2,3,3a,4,6b-hexahydro-1H-2,6a-diazacyclobut[cd]indene-6-carboxylate], the “MIC C. freundii 1982 (D)” value in assay [1] came out at 8 µg/mL. In addition, the “MIC E. coli 1346 (E)” value against E. coli 1346 is more than 32 µg/mL.
Turning to `Cn1nnnc1SCC(=O)N1C[C@H]2CC(OS(C)(=O)=O)=C(C(=O)O)N3C(=O)[C@@H]1[C@@H]23` [11(b), (1aS,3aR,6bR)-5-Methylsulphonyloxy-2-(1-methyl-1H-tetrazol-5-ylsulphanylacetyl)-1-oxo-1a,2,3,3a,4,6b-hexahydro-1H-2,6a-diazacyclobut[cd]indene-6-carboxylic acid sodium salt], the “MIC C. freundii 1982” value in assay [1] came to 0.5 µg/mL. The “MIC E. coli 1346” value against E. coli 1346 was found to be 16 µg/mL.
Regarding `CC(=O)N1C[C@H]2CC(COC(=O)NCC(F)(F)F)=C(C(=O)O)N3C(=O)[C@@H]1[C@@H]23` [92(a), (1aS,3aR,6bR)-2-Acetyl-1-oxo-5-(2,2,2-trifluoroethylcarbamoyloxymethyl)-1a,2,3,3a,4,6b-hexahydro-1H-2,6a-diazacyclobut[cd]indene-6-carboxylic acid sodium salt], in assay [1], the “MIC C. freundii 1982 (D)” value was 2 µg/mL. Besides, the “MIC E. coli 1346 (E)” value in the assay on E. coli 1346 stood at 4 µg/mL.
On to `CS(=O)(=O)OC1=C(C(=O)O)N2C(=O)[C@@H]3[C@H]2[C@H](C1)CN3C(=O)Nc1ccc(O)cc1` [9(a), (1aS,3aR,6bR)-2-(4-Hydroxy-phenylcarbamoyl)-5-methylsulphonyloxy-1-oxo-1a,2,3,3a,4,6b-hexahydro-1H-2,6a-diazacyclobut[cd]indene-6-carboxylic acid sodium salt], for which, in assay [1], the “MIC C. freundii 1982” value turned out to be 0.12 µg/mL. Besides, the “MIC E. coli 1346” value in the assay with E. coli 1346 stood at 32 µg/mL.
Consider `Cn1nnnc1SCC1=C(C(=O)O)N2C(=O)[C@@H]3[C@H]2[C@H](C1)CN3C(=O)Nc1ccc(C(N)=O)cc1` [18(b), (1aS,3aR,6bR)-2-(4-Carbamoyl-phenylcarbamoyl)-5-(1-methyl-1H-tetrazol-5-ylsulphanylmethyl)-1-oxo-1a,2,3,3a,4,6b-hexahydro-1H-2,6a-diazacyclobut[cd]indene-6-carboxylic acid sodium salt], for which the “MIC C. freundii 1982” value in assay [1] worked out at 0.25 µg/mL. Further, the “MIC E. coli 1346” value against E. coli 1346 stood at 32 µg/mL.
Consider `CO/N=C(\C(=O)N1C[C@H]2CC(COC(N)=O)=C(C(=O)O)N3C(=O)[C@@H]1[C@@H]23)c1csc(N)n1` [Example 60, (Z)-(1aS,3aR,6bR)-2-[(2-Amino-thiazol-4-yl)-methoxyimino-acetyl]-5-carbamoyloxymethyl-1-oxo-1a,2,3,3a,4,6b-hexahydro-1H-2,6a-diazacyclobut[cd]indene-6-carboxylic acid], for which the “MIC C. freundii 1982 (D)” value in assay [1] came out at 2 µg/mL. Moreover, in the assay on E. coli 1346, the “MIC E. coli 1346 (E)” value was more than 32 µg/mL.
On to `O=C(Cn1nnnc1SCC1=C(C(=O)O)N2C(=O)[C@H]3NC[C@@H](O1)[C@H]32)NC1CC1` [Example 29(g), (1aS,3aR,6bS)-5-(1-(cyclopropyl-carbamoylmethyl)-1H-tetrazol-5-ylsulphanylmethyl)-1-oxo-1,1a,2,3,3a,6b-hexahydro-4-oxa-2,6a-diazacyclobut[cd]indene-6-carboxylic acid], for which the “MIC C. freundii 1982 (D)” value in assay [1] was found to be 8 µg/mL. The “MIC E. coli 1346 (E)” value with E. coli 1346 was 8 µg/mL (≈ 19.6 µM).
